According to patent publication US20250122171A1, “Substituted Amine Compounds, Compositions and Methods of Use” (Deep Apple Therapeutics, Inc., priority 2023, published 2025):

target: T1, human MRGPRX2 (Homo sapiens, UniProt Q96LB1); assay: MRGPRX2 Activity Assay (IP-1 HTRF, antagonist mode); type: cell-based; conditions: FlpIn TRex-MRGPRX2-HEK293 cells; versus 1 μM Cortistatin-14 agonist; 30 minutes preincubation
T1 construct: expressed in transfected cells; host or cells: FlpIn TRex HEK293 (TRex-MRGPRX2-HEK), doxycycline-induced
T1 sequence (Q96LB1 1-330): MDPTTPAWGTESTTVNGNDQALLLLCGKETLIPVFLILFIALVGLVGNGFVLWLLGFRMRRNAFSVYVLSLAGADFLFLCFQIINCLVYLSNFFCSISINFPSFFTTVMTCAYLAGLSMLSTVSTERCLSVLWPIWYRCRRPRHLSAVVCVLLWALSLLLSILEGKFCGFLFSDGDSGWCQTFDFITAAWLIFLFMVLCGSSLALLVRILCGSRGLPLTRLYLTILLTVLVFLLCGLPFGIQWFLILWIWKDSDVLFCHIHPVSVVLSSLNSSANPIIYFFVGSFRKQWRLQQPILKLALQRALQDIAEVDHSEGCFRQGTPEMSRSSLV
Description: FlpIn TRex-MRGPRX2-HEK293 cells (herein TRex-MRPGRX2-HEK) stably transfected to express human MRGPRX2 were maintained at 37° C. with 5% CO2 and grown in DMEM supplemented with 10% FBS, 1% L-Glutamate, 1% penicillin/streptomycin, 100 ug/mL Hygromycin B, and 15 ug/mL Blasticidin.
GOI (MRGPRX2) expression was induced with 100 ng/mL of Doxycycline 18-24 hours prior to experiment, in flask. On the day of experiment, cells were lifted with TripLE Express and seeded in 384-well white walled opaque bottomed, assay plates, at 8,000 cells per well in 5 uL freshly made assay buffer (HBSS, 20 mM HEPES, 0.1% BSA and 10 mM LiCl). Compounds solubilized in 100% DMSO at 30 mM were serially diluted (1:4) first in 100% DMSO, and an intermediate plate of assay buffer was used to establish a final top concentration of 30 uM (in assay plate). Final DMSO concentration was kept constant at 1% across assay plates. […], at 30 mM stock concentration was solubilized in HBSS+0.1% BSA, stored at −20° C. in 5 μL aliquots and discarded after one freeze-thaw cycle. […].
Antagonist equilibrium was established with 30 minutes preincubation, followed by no wash, direct addition, and stimulation of agonist for 1 hour at 37° C./5% CO2. IP-1 standards and HTRF detection reagents were added according to the IP-one Gq kit protocol purchased from CisBio (part number 62IPAPEJ). The plate was read on an EnVision XCite plate reader. The HTRF ratio was then calculated from raw data (channel1/channel2×10,000) and analyzed using either GraphPad Prism or a custom Python script to calculate IC50 using Log[Antagonist] vs. response (4 parameter) nonlinear regression.

Compound	IC50 [nM]
C[C@H](C(=O)Nc1cn2c(n1)CC[C@H]2c1cc(F)cc(F)c1)N1CCC(F)(F)[C@@H](c2cc[n+]([O-])cc2)C1 (single isomer, unassigned) [Compound 486]	1180
C[C@H](C(=O)Nc1cn2c(n1)CC[C@H]2c1cc(F)cc(F)c1)N1CCOCC1 (single isomer, unassigned) [Compound 513]	> 30000
C[C@H](C(=O)Nc1cn(Cc2cc(F)cc(F)c2)cn1)N1CCC(F)(F)[C@H](c2ccc(=O)n(C)c2)C1 (single isomer, unassigned) [Compound 70]	> 30000
C[C@@H](C(=O)Nc1cn(Cc2ccc(Cl)cc2F)cn1)N1CCC(F)(F)[C@@H](c2cc[n+]([O-])cc2)C1 [Compound 31, 4-((S)-1-((S)-1-((1-(4-chloro-2-fluorobenzyl)-1H-imidazol-4-yl)amino)-1-oxopropan-2-yl)-4,4-difluoropiperidin-3-yl)pyridine 1-oxide]	361
C[C@@H](C(=O)Nc1cn(Cc2cc(F)cc(F)c2)cn1)N1CCC(F)(F)[C@@H](c2cc[n+]([O-])cc2)C1 (single isomer, unassigned) [Compound 6]	1780
C[C@@H](C(=O)Nc1cn2c(n1)CC[C@@H]2c1cc(F)cc(F)c1)N1CCC(F)(F)[C@@H](c2c[nH]c(=O)c(CO)c2)C1 (single isomer, unassigned) [Compound 523]	> 30000
C[C@@H](C(=O)Nc1cn(Cc2cc(F)cc(F)c2)c(CF)n1)N1CCC(F)(F)[C@@H](c2cc[n+]([O-])cc2)C1 (single isomer, unassigned) [Compound 60]	> 30000
Cc1nc(NC(=O)[C@H](C)N2CCC(F)(F)[C@@H](c3cc[n+]([O-])cc3)C2)cn1Cc1cc(F)cc(C#N)c1 (single isomer, unassigned) [Compound 17]	125
C[C@H](C(=O)Nc1cn([C@@H](C)c2cc(F)cc(F)c2)cn1)N1CCC(F)(F)[C@@H](c2cc[n+]([O-])cc2)C1 (single isomer, unassigned) [Compound 13]	233
C[C@@H](C(=O)Nc1cn(Cc2cccc(F)c2)cn1)N1CCC(F)(F)[C@@H](c2cc[n+]([O-])cc2)C1 [Compound 38, 4-((S)-4,4-difluoro-1-((S)-1-((1-(3-fluorobenzyl)-1H-imidazol-4-yl)amino)-1-oxopropan-2-yl)piperidin-3-yl)pyridine 1-oxide]	93
C[C@@H](C(=O)Nc1cn(Cc2cc(F)cc(F)c2)cn1)N1CCC(F)(F)[C@@H](c2ccc(=O)n(C)c2)C1 (single isomer, unassigned) [Compound 67]	4330
C[C@@H](C(=O)Nc1cn(Cc2cc(F)c(Cl)c(F)c2)cn1)N1CCC(F)(F)[C@@H](c2cc[n+]([O-])cc2)C1 [Compound 44, 4-((S)-1-((S)-1-((1-(4-chloro-3,5-difluorobenzyl)-1H-imidazol-4-yl)amino)-1-oxopropan-2-yl)-4,4-difluoropiperidin-3-yl)pyridine 1-oxide]	241
C[C@@H](C(=O)Nc1cn(Cc2cc(Cl)cc(Cl)c2)cn1)N1CCC(F)(F)[C@@H](c2cc[n+]([O-])cc2)C1 [Compound 50, 4-((S)-1-((S)-1-((1-(3,5-dichlorobenzyl)-1H-imidazol-4-yl)amino)-1-oxopropan-2-yl)-4,4-difluoropiperidin-3-yl)pyridine 1-oxide]	45
C[C@@H](C(=O)Nc1cn2c(n1)CC[C@H]2c1cc(F)cc(F)c1)N1CCC(F)(F)[C@@H](c2cc[n+]([O-])cc2)C1 (single isomer, unassigned) [Compound 487]	13800
C[C@H](C(=O)Nc1cn(Cc2cc(F)cc(F)c2)cn1)N1CCC(F)(F)[C@H](c2c[nH]c(=O)c(CO)c2)C1 (single isomer, unassigned) [Compound 74]	> 30000
C[C@@H](C(=O)Nc1cn2c(n1)CC[C@@H]2c1cc(F)cc(F)c1)N1CCC2(CC2)[C@H](c2cc[n+]([O-])cc2)C1 (single isomer, unassigned) [Compound 522]	229
C[C@@H](C(=O)Nc1cn2c(n1)CC[C@@H]2c1cc(F)cc(F)c1)N1CCC(F)(F)[C@H](c2ccc(=O)[nH]c2)C1 (single isomer, unassigned) [Compound 495]	> 30000

Compound	IC50 [nM]
C[C@@H](C(=O)Nc1cn(Cc2cc(Cl)ccc2F)cn1)N1CCC(F)(F)[C@@H](c2cc[n+]([O-])cc2)C1 [Compound 33, 4-((S)-1-((S)-1-((1-(5-chloro-2-fluorobenzyl)-1H-imidazol-4-yl)amino)-1-oxopropan-2-yl)-4,4-difluoropiperidin-3-yl)pyridine 1-oxide]	30
C[C@H](C(=O)Nc1cn(Cc2ccc(F)cc2F)cn1)N1CCC(F)(F)[C@@H](c2cc[n+]([O-])cc2)C1 (single isomer, unassigned) [Compound 2]	2950
C[C@@H](C(=O)Nc1cn(Cc2cccc(F)c2Cl)cn1)N1CCC(F)(F)[C@@H](c2cc[n+]([O-])cc2)C1 [Compound 51, 4-((S)-1-((S)-1-((1-(2-chloro-3-fluorobenzyl)-1H-imidazol-4-yl)amino)-1-oxopropan-2-yl)-4,4-difluoropiperidin-3-yl)pyridine 1-oxide]	34
C[C@@H](C(=O)Nc1cn2c(n1)CC[C@@H]2c1cc(F)cc(F)c1)N1CCC(F)(F)[C@@H](c2ccc(=O)n(C)c2)C1 (single isomer, unassigned) [Compound 532]	5200
C[C@@H](C(=O)Nc1cn2c(n1)CC[C@@H]2c1cc(F)cc(F)c1)N1CCC(F)(F)[C@H](c2c[nH]c(=O)cn2)C1 (single isomer, unassigned) [Compound 528]	6.8
C[C@@H](C(=O)Nc1cn2c(n1)CC[C@@H]2c1cc(F)cc(F)c1)N1CCC(F)(F)[C@@H](c2cc[n+]([O-])c(CO)c2)C1 (single isomer, unassigned) [Compound 525]	5480
C[C@@H](C(=O)Nc1cn(Cc2cc(F)c(F)cc2F)cn1)N1CCC(F)(F)[C@@H](c2cc[n+]([O-])cc2)C1 [Compound 65, 4-((S)-4,4-difluoro-1-((S)-1-oxo-1-((1-(2,4,5-trifluorobenzyl)-1H-imidazol-4-yl)amino)propan-2-yl)piperidin-3-yl)pyridine 1-oxide]	504
C[C@@H](C(=O)Nc1cn(Cc2ccc(F)cc2F)cn1)N1CCC(F)(F)[C@H](c2cc[n+]([O-])cc2)C1 (single isomer, unassigned) [Compound 3]	> 10000
C[C@@H](C(=O)Nc1cn2c(n1)CC[C@H]2c1cc(F)cc(F)c1)N1CCOCC1 (single isomer, unassigned) [Compound 514]	> 30000
C[C@H](c1cc(F)cc(F)c1)n1cnc(NC(=O)[C@H](C)N2CCC(F)(F)[C@@H](c3cc[n+]([O-])cc3)C2)c1 (single isomer, unassigned) [Compound 14]	465
C[C@@H](C(=O)Nc1cn(Cc2ccc(F)c(F)c2)cn1)N1CCC(F)(F)[C@@H](c2cc[n+]([O-])cc2)C1 [Compound 46, 4-((S)-1-((S)-1-((1-(3,4-difluorobenzyl)-1H-imidazol-4-yl)amino)-1-oxopropan-2-yl)-4,4-difluoropiperidin-3-yl)pyridine 1-oxide]	210
C[C@H](C(=O)Nc1nc(Cc2cc(F)cc(F)c2)no1)N1CCC(F)(F)[C@@H](c2cc[n+]([O-])cc2)C1 (single isomer, unassigned) [Compound 59]	432
C[C@@H](C(=O)Nc1cn2c(n1)CC[C@@H]2c1cc(F)cc(F)c1)N1CCC2(CC2)[C@@H](c2cc[n+]([O-])cc2)C1 (single isomer, unassigned) [Compound 521]	4750
C[C@@H](C(=O)Nc1cn(Cc2cc(F)c(F)c(F)c2F)cn1)N1CCC(F)(F)[C@@H](c2cc[n+]([O-])cc2)C1 [Compound 32, 4-[(3S)-4,4-difluoro-1-[(1S)-1-({1-[(2,3,4,5-tetrafluorophenyl)methyl]imidazol-4-yl}carbamoyl)ethyl]piperidin-3-yl]pyridin-1-ium-1-olate]	104
C[C@H](C(=O)Nc1cn2c(n1)CC[C@@H]2c1cc(F)cc(F)c1)N1CCOCC1 (single isomer, unassigned) [Compound 512]	4080
(2S)-2-[(3R)-4,4-difluoro-3-(1-methyl-6-oxopyridin-3-yl)piperidin-1-yl]-N-{1-[(3,5-difluorophenyl)methyl]imidazol-4-yl}propanamide [Compound 78]	> 30000
